Experimental data taken from PMC8073686, “Characterization of Subtype Selective Cannabinoid CB2 Receptor Agonists as Potential Anti-Inflammatory Agents” (Pharmaceuticals, 2021).
Like-named read-outs stand apart in the source and are kept apart here.

How the values were obtained:
[1] = system: TNF-α mRNA in Jurkat cells; design: method as in PMID 33712283; conditions: concentration not given; cited from earlier work
[2] = system: TNF-α production in Jurkat cells; design: method as in PMID 33712283; conditions: concentration not given; cited from earlier work
CB2 [3] = target: T1, CB2 (Homo sapiens, UniProt P34972); design: method as in PMID 30951717; conditions: competition with [3H]CP55,940; determined previously; cited from earlier work
T1 construct: expressed in transfected cells; host or cells: HEK293T cells, calcium phosphate transfection, membrane preparation

CB1 receptor [4] = target: T2, CB1 receptor (Homo sapiens, UniProt P21554); design: method as in PMID 30951717; conditions: cited from earlier work
T2 construct: expressed in transfected cells; host or cells: HEK293T cells (called 'HEK293 cells' in Results), calcium phosphate transfection, membrane preparation

CB2 [5] = target: T1, CB2; design: method as in PMID 30951717; conditions: stimulation of [35S]GTPγS binding; determined previously; cited from earlier work
CB2 [6] = target: T1, CB2; assay: Competitive [3H]CP55,940 radioligand binding, CB2-transfected HEK293T cell membrane
Excerpt: (§1) To evaluate binding affinity of ABK5 analogs that have a difference in the position of substituents in the N-phenyl ring (Figure 1), we performed competitive radiolabeled ligand binding assays using cell membrane from HEK293T cells transfected with human CB2 receptors. […] ABK5-1, ABK5-2, and ABK5-6 dose-dependently competed with [^3H]CP55,940 and decreased the specific binding of the radiolabeled agonist, which reflects the binding of test compounds to CB2. […] Therefore, ABK5-5 was not considered for further evaluation in this study. […] We also examined CB2 selectivity (versus CB1) of the three compounds by performing similar binding assays using membrane from CB1 expressing HEK293 cells instead of CB2 expressing cells. […] Therefore, ABK5-1 and 5-2 maintained the CB2 subtype selectivity of ABK5.
(§2) In the experiment, 1 × 10^6 HEK293T cells were seeded in a 10-cm cell culture dish and cultured for 24 h. Cells were transfected with CB1 or CB2 using the calcium phosphate method. Approximately one day after transfection, cells were harvested and centrifuged at 4 °C for 5 min at 500× g. The pellet was washed with phosphate buffered saline (PBS) twice and resuspended in PBS containing 1% protease-inhibitor cocktail (Sigma-Aldrich, St. Louis, MO, USA) consisting of 104 mM 4-(2-aminoethyl) benzene sulfonyl fluoride hydrochloride (AEBSF), 80 μM apronitin, 4 mM bestatin, 1.64 mM E-64, 2 mM leupeptin, 1.5 mM pepstatin A. Then the cells were subjected to nitrogen cavitation under 750 psi for 5 min using a Parr cell disruption bomb. The lysate was centrifuged at 500× g for 10 min at 4 °C and the supernatant was spun at 116,000× g for 45 min at 4 °C. The pellet, consisting of the cell membrane expressing CB1 or CB2, was resuspended in TME buffer solution (25 mM Tris-HCl, 5 mM MgCl2, and 1 mM EDTA, pH 7.4) with 7% (w/v) sucrose/TME buffer. The concentration of the membrane protein was determined by the Bradford assay (Bradford, 1976).
Membrane protein was mixed with 1 nM to 10 μM of the test compounds and 1 nM [^3H]CP55,940 (164.9 Ci/mmol; PerkinElmer life Sciences, Waltham, MA, USA), and TME buffer supplemented with 0.2% BSA was used to bring the total volume to 200 μL. [^3H]CP55,940 acts as tracer and agonists that bind the target receptor compete with [^3H]CP55,940. Samples were incubated for 1 h at 30 °C. Ten μM unlabeled CP55,940 was used to determine non-specific binding. […] A Beckman Coulter 6500 liquid scintillation counter was used to measure the radioactivity of the samples.
Results are presented as the mean ± standard deviation (S.D.). […] The Ki values in the ligand binding assay were calculated using the Prism software (GraphPad Software Inc., San Diego, CA, USA), using IC50 values obtained from non-linear regression fitted to the one-site binding model. […]

CB2 [7] = target: T1, CB2; assay: [35S]GTPγS binding assay (G-protein coupling), CB2 containing HEK293T cell membrane; type: biochemical; conditions: stimulation of [35S]GTPγS binding; mean ± S.D.
Protocol: We also examined if the compounds can induce G-protein coupling and act as CB2 agonists. Three compounds, ABK5-1, ABK5-2, and ABK5-6, were subjected to [^35S]GTPγS binding assays. Increasing concentrations, from 1 nM to 10 μM of the test compounds, were incubated with CB2 containing HEK293T cell membrane and [^35S]GTPγS, which binds to Gi/o in the membrane upon CB2 activation and G-protein coupling. All three compounds stimulated dose-dependent increases of specific [^35S]GTPγS binding (Figure 3).
as §2
GTPγS binding assay buffer ([…], pH 7.4, 3 mM MgCl2, 0.2 mM EGTA, and 100 mM NaCl) membrane protein, 1 nM to 10 μM of the test compounds, 0.1 nM [^35S] GTPγS (1250 Ci/mmol; PerkinElmer Life Sciences, Waltham, MA, USA), 0.1% fatty acid free BSA (w/v), 10 μM guanosine diphosphate (GDP) and GTPγS was incubated for 1 h at 30 °C with shaking. […] A Beckman Coulter 6500 liquid scintillation counter was used to measure the radioactivity of the samples. […]

CB1 receptor [8] = target: T2, CB1 receptor; assay: Competitive [3H]CP55,940 radioligand binding, membrane from CB1 expressing HEK293 cells
Excerpt: as §1, §2
Membrane protein was mixed with 1 nM to 10 μM of the test compounds and 1 nM [^3H]CP55,940 (164.9 Ci/mmol; PerkinElmer life Sciences, Waltham, MA, USA), and TME buffer supplemented with 0.2% BSA was used to bring the total volume to 200 μL. [^3H]CP55,940 acts as tracer and agonists that bind the target receptor compete with [^3H]CP55,940. Samples were incubated for 1 h at 30 °C. Ten μM unlabeled CP55,940 was used to determine non-specific binding. Reactions were stopped by adding 5% BSA/TME buffer (w/v) and samples were filtered through a Brandel cell harvester using Whatman GF/C filter paper. Ultima Gold XR liquid scintillation cocktail (PerkinElmer Life Sciences, Waltham, MA, USA) was then added and vortexed. A Beckman Coulter 6500 liquid scintillation counter was used to measure the radioactivity of the samples.
Results are presented as the mean ± standard deviation (S.D.). The ligand binding assays and the GTPγS binding assays were both carried out in duplicate for three independent experiments. The Ki values in the ligand binding assay were calculated using the Prism software (GraphPad Software Inc., San Diego, CA, USA), using IC50 values obtained from non-linear regression fitted to the one-site binding model. The Cheng-Prusoff equation [48], which is used for calculation of Ki value is shown below. (1) Ki=IC50/1+L/Kd

T2 sequence (P21554 whole entry): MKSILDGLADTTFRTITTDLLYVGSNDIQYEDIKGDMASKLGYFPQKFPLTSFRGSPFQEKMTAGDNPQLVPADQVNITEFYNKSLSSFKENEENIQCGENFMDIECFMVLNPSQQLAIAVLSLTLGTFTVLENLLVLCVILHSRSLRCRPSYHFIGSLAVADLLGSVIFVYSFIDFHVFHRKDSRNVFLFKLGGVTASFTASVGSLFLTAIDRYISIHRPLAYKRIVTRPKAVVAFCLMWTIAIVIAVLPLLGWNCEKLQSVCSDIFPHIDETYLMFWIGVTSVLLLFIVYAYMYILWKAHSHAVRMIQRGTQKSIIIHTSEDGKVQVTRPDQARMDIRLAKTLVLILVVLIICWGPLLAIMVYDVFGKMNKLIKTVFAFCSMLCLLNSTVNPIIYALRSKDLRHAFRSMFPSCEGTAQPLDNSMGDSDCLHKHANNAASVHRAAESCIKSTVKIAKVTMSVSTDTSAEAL
T1 sequence (P34972 whole entry): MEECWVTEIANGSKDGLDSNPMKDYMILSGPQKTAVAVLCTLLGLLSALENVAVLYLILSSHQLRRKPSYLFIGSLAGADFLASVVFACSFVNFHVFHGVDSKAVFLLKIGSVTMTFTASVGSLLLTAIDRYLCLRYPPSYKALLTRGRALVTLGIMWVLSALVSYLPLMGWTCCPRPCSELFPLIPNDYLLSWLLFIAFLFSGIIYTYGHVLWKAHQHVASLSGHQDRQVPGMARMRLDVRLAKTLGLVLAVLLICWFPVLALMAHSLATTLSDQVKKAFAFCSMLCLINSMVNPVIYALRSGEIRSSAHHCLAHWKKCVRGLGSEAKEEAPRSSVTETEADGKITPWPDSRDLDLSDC

SMILES: CCOC(=O)c1ccccc1NC(=O)CN(c1cccc(C)c1C)S(=O)(=O)c1ccccc1 [ABK5, ethyl 2(2-(N-(2,3-dimethylphenyl)phenylsulfonamido)acetamido)benzoate]
- decrease of TNF-α mRNA [1]: 33%
- decrease of TNF-α protein level [2]: 30%
- Ki (CB2 [3]): 0.016 ± 0.014 µM
- Ki CB1 (CP55,940) (CB1 receptor [4]; N.B. = no specific binding detected up to 10 μM, determined previously): N.B. ^c
- CB1 binding: no binding detected up to (CB1 receptor [4]): > 10 µM
- EC50 (CB2 [5]): 0.004 ± 0.003 µM

SMILES: CCOC(=O)c1ccc(NC(=O)CN(c2cccc(C)c2C)S(=O)(=O)c2ccccc2)cc1 [ABK5-5]
- CB2 binding, extent as % of total binding (CB2 [6]; data not shown, Ki not calculated): ≤ 60%

SMILES: CCOC(=O)c1ccccc1NC(=O)CN(c1cc(C)ccc1C)S(=O)(=O)c1ccccc1 [ABK5-6]
- Ki (CB2 [6]; competition with [3H]CP55,940, mean ± S.D.): 0.014 ± 0.002 µM
- EC50 (CB2 [7]): 0.01 ± 0.005 µM
- CB1 binding (in words) (CB1 receptor [8]): weak CB1 binding in the micromolar range
- Ki (CB1 receptor [8]; competition with [3H]CP55,940, N.B. = no specific binding detected up to 10 μM of test compounds): > 1 µM
